These compounds were tested against T1, human V1a receptor (Homo sapiens, UniProt P37288) (assay: human V1a receptor binding (3H-Vasopressin SPA, HEK293 membranes)). Settings: displacement of 4 nM 3H-Vasopressin, membranes of HEK293 cells transiently transfected with human V1a receptor; Ki from IC50 by Cheng-Prussoff.
T1 construct: expressed in transfected cells; host or cells: HEK293 cells, transiently transfected; cell membranes
Description: The human V1a receptor was cloned by RT-PCR from total human liver RNA. The coding sequence was subcloned in an expression vector after sequencing to confirm the identity of the amplified sequence. […] Cell membranes were prepared from HEK293 cells transiently transfected with the expression vector and grown in 20 liter fermenters with the following protocol.
50 g cells are resuspended in 30 ml freshly prepared ice cold Lysis buffer (50 mM HEPES, 1 mM EDTA, 10 mM MgCl2 adjusted to pH=7.4+complete cocktail of protease inhibitor (Roche Diagnostics)). The cells are homogenized with Polytron for 1 min and sonicated on ice for 2×2 minutes at 80% intensity (Vibracell sonicator). The preparation is centrifuged 20 min at 500 g at 4° C., the pellet is discarded and the supernatant centrifuged 1 hour at 43,000 g at 4° C. (19,000 rpm). The pellet is resuspended in 12.5 ml Lysis buffer+12.5 ml Sucrose 20% and homogenized using a Polytron for 1-2 min. The protein concentration is determined by the Bradford method and aliquots are stored at −80° C. until use. For binding studies 60 mg Yttrium silicate SPA beads (Amersham) are mixed with an aliquot of membrane in binding buffer (50 mM Tris, 120 mM NaCl, 5 mM KCl, 2 mM CaCl2, 10 mM MgCl2) for 15 minutes with mixing. 50 ul of bead/membrane mixture is then added to each well of a 96 well plate, followed by 50 ul of 4 nM 3H-Vasopressin (American Radiolabeled Chemicals). For total binding measurement 100 ul of binding buffer are added to the respective wells, for non-specific binding 100 ul of […] cold vasopressin and for compound testing 100 ul of a serial dilution of each compound in 2% DMSO. The plate is incubated 1 h at room temperature, centrifuged 1 min at 1000 g and counted on a Packard Top-Count. Non-specific binding counts are subtracted from each well and data is normalized to the maximum specific binding set at 100%. To calculate an IC 50 the curve is fitted using a non-linear regression model (XLfit), and the Ki is calculated using the Cheng-Prussoff equation.

T1 sequence (P37288 whole entry): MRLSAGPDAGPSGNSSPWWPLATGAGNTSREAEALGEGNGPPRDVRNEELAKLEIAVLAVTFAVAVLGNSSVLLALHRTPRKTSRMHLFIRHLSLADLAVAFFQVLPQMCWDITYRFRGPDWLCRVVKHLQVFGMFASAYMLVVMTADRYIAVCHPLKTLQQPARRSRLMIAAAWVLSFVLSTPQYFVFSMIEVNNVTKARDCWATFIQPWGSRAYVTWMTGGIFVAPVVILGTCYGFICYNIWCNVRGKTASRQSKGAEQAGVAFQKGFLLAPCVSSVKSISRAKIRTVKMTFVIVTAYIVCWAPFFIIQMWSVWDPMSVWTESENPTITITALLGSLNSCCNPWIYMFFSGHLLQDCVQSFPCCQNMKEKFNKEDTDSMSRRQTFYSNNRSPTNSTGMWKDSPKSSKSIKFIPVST

SMILES | Ki
O=C1OC2(CCN(C(=O)c3cn(Cc4ccc(Cl)nc4)c4cc(Cl)ccc34)CC2)c2ccc(F)cc21 [Example 164, 1′-({6-Chloro-1-[(6-chloropyridin-3-yl)methyl]-1H-indol-3-yl}carbonyl)-5-fluoro-3H-spiro[2-benzofuran-1,4′-piperidin]-3-one] | 2.9 nM
CN(C)C(=O)Cn1cc(C(=O)N2CCC3(CC2)OC(=O)c2cc(F)ccc23)c2ccc(Cl)cc21 [Example 110, 2-{6-Chloro-3-[(5-fluoro-3-oxo-1′H,3H-spiro[2-benzofuran-1,4′-piperidin]-1′-yl)carbonyl]-1H-indol-1-yl}-N,N-dimethylacetamide] | 0.8 nM
CN1CCN(C(=O)c2[nH]c3cc(Cl)ccc3c2C(=O)N2CCC3(CC2)OC(=O)c2cc(F)ccc23)CC1 [Example 32, 1′-({6-chloro-2-[(4-methylpiperazin-1-yl)carbonyl]-1H-indol-3-yl}carbonyl)-5-fluoro-3H-spiro[2-benzofuran-1,4′-piperidin]-3-one] | 27.5 nM
CN(C)CCn1cc(C(=O)N2CCC3(CC2)OCc2ccccc23)c2ccc(Cl)cc21 [Example 210, 2-[6-Chloro-3-(1′H,3H-spiro[2-benzofuran-1,4′-piperidin]-1′-ylcarbonyl)-1H-indol-1-yl]-N,N-dimethylethanamine] | 1 nM
CNCCNC(=O)Cn1cc(C(=O)N2CCC3(CC2)OCc2ccccc23)c2ccc(Cl)cc21 [Example 251, 2-[6-Chloro-3-(1′H,3H-spiro[2-benzofuran-1,4′-piperidin]-1′-ylcarbonyl)-1H-indol-1-yl]-N-[2-(methylamino)ethyl]acetamide] | 2.1 nM
O=C(Cn1cc(C(=O)N2CCC3(CC2)OC(=O)c2ccccc23)c2ccc(Cl)cc21)c1ccccc1F [Example 153, 1′-({6-Chloro-1-[2-(2-fluorophenyl)-2-oxoethyl]-1H-indol-3-yl}carbonyl)-3H-spiro[2-benzofuran-1,4′-piperidin]-3-one] | 1 nM

Results, then the compound that gave them:

Ki | SMILES
3.1 nM | Cc1cc(Cn2cc(C(=O)N3CCC4(CC3)OC(=O)c3cc(F)ccc34)c3ccc(Cl)cc32)no1 [Example 179, 1′-({6-Chloro-1-[(5-methylisoxazol-3-yl)methyl]-1H-indol-3-yl}carbonyl)-5-fluoro-3H-spiro[2-benzofuran-1,4′-piperidin]-3-one]
1.7 nM | O=C(c1cn(C[C@H]2CCCNC2)c2cc(Cl)ccc12)N1CCC2(CC1)OCc1ccccc12 [Example 261, 1′-({6-Chloro-1-[(3S)-piperidin-3-ylmethyl]-1H-indol-3-yl}carbonyl)-3H-spiro[2-benzofuran-1,4′-piperidine]]
19.7 nM | O=C(c1c[nH]c2cc(Cl)ccc12)N1CCC2(CCc3ccccc32)CC1 [Example 6, 1′-[(6-chloro-1H-indol-3-yl)carbonyl]-2,3-dihydrospiro[indene-1,4′-piperidine]]
2.6 nM | O=C(c1cn(C(=O)N2CCCCC2)c2cc(Cl)ccc12)N1CCC2(CC1)OCc1ccccc12 [Example 208, 1′-{[6-Chloro-1-(piperidin-1-ylcarbonyl)-1H-indol-3-yl]carbonyl}-3H-spiro[2-benzofuran-1,4′-piperidine]]
3.8 nM | O=C1OC2(CCN(C(=O)c3cn(Cc4cc(F)cc(F)c4)c4cc(Cl)ccc34)CC2)c2ccc(Br)cc21 [Example 150, 5-Bromo-1′-{[6-chloro-1-(3,5-difluorobenzyl)-1H-indol-3-yl]carbonyl}-3H-spiro[2-benzofuran-1,4′-piperidin]-3-one]
7.4 nM | O=C(c1c[nH]c2cc(Cl)c(F)cc12)N1CCC2(CC1)COc1ccccc12 [Example 80, 1′-[(6-chloro-5-fluoro-1H-indol-3-yl)carbonyl]spiro[1-benzofuran-3,4′-piperidine]]
5.7 nM | CCN(CC)C(=O)Cn1cc(C(=O)N2CCC3(CC2)CNc2ccccc23)c2ccc(Cl)cc21 [Example 99, 2-[6-Chloro-3-(1,2-dihydro-1′H-spiro[indole-3,4′-piperidin]-1′-ylcarbonyl)-1H-indol-1-yl]-N,N-diethylacetamide]

— patent publication US7332501B2, “Indol-3-yl-carbonyl-spiro-piperidine derivatives as V1a receptor antagonists” (Hoffmann-La Roche Inc., priority 2005, dated 2008)
